Laboratory results from patent publication US20240132955A1, “BENIGN SCAR-FORMING CLEAVABLE LINKERS” (Ultima Genomics, Inc., priority 2021, published 2024).

What was measured:
Format in all cases: biochemical
[1] = test system: template nucleic acid sequence; assay: Sequencing assays with different capping reagents (Example 6, FIG. 11); conditions: for fluorescence intensities for subsequent incorporation steps: capping between flows, compared with assay without capping reagents
Description: Extension and sequencing performance were tested for a set of labeled nucleotides and capping reagents. The labeled nucleotides used in this example consisted of the dye-linkers as shown in FIG. 9A on each of the four nucleotides. A set of sequencing assays were performed by extending a primer against a template nucleic acid sequence in the presence of alternating flows of single fluorescently labeled nucleotides provided as cycles of U, A, C, and then G. In between each flow, the fluorescent labels were detected, cleaved, and optionally capped with one of ethyl propiolate (EP), iodoacetamide (IAc), methyl methanethiosulfonate (MMTS), or dipyridyl disulfide (DPDS). Each labeled nucleotide flow was then followed by a “dark tap” flow consisting of 100% unlabeled nucleotides to maintain phasing.
FIG. 11 summarizes the results of the sequencing assays in table 1100. Table 1100 provides the results of uridine, adenosine, cytidine, and guanosine incorporation steps performed without any capping agents or in the presence of different capping agents. Assay A illustrates results from sequencing assays performed without capping reagents. Following a high-efficiency first nucleotide incorporation step with labeled uridine, subsequent nucleotide incorporation steps were suppressed, including subsequent uridine additions.

[2] = test system: template strand comprising the 3′ sequence TCAGTGGTTG; assay: Sequencing assay with capping reagent DPDS in U dark tap flows (Example 5); conditions: DPDS only in U dark tap flows; 100% labeled U, 10% A, 20% C, 10% G
Text: In this example, a set of labeled nucleotide reagents were contacted to a primer hybridized to a template strand comprising the 3′ sequence TCAGTGGTTG under conditions suitable for extension. Fluorescently labeled adenosine, cytidine, and guanosine nucleotides were of the structure indicated in FIG. 10A, while labeled uridine nucleotides were of the structure provided in FIG. 10B. Different canonical nucleotide types were provided in separate, sequential flows, starting with uridine (U), followed by adenosine (A), cytidine (C), and finally guanosine (G), before repeating the cycle beginning again with U. Flows contained anywhere from 10% to 100% labeled nucleotides, with the remaining nucleotides provided in their natural, unlabeled form. In between each flow, the fluorescent labels were detected, cleaved, and optionally capped. Each labeled nucleotide flow was then followed by a “dark tap” flow consisting of 100% unlabeled nucleotides in order to maintain phasing.
FIG. 10E summarizes the sequencing results of an assay utilizing flows with 100% labeled U, 10% labeled A, 20% labeled C, 10% labeled G, and the capping reagent DPDS. provided in only the U “dark tap” nucleotide flows. […] This was likely due to capping reagent cleavage from the nucleotide scars, as the linker cleavage reagent was likely also active in removing caps from scar moieties. […]

[3] = test system: template nucleic acid starting with AGTCTTTGGGTT; assay: Sequencing assays with capping or immolating linkers (Example 9, FIG. 16); conditions: DPDS in U dark tap flows; 100% labeled U, 10% A, 20% C, 10% G; compared to FIG. 16A
Description: In this example, a set of sequencing assays were performed by extending a primer against the same template nucleic acid starting with AGTCTTTGGGTT in the presence of alternating flows of single fluorescently labeled nucleotides provided as cycles of U, A, C, and then G. In between each flow, the fluorescent labels were detected, cleaved, and optionally capped with dipyridyl disulfide (DPDS). Each labeled nucleotide flow was then followed by a “dark tap” flow consisting of 100% unlabeled nucleotides to maintain phasing. Furthermore, some assays utilized nucleotides with immolating linkers.
In each figure, the y-axes provide fluorescence intensity following labeled nucleotide incorporation, and the four plots (from top to bottom) separately provide the results of uridine, adenosine, cytidine, and guanosine incorporation steps, with individual cycles progressing from left to right. In particular, a closer look is taken at the first 4 flow-cycles of U-A-C-G, where nucleotides are expected to be incorporated in the order of T-C (cycle 1; U, A, C, G flows being a complete single cycle), A-G (cycle 2), AAA-CCC (cycle 3), AA (cycle 4). Here nucleotides incorporated in each U-A-C-G flow-cycle are separated with square brackets. […]

Compound | fluorescence intensities for subsequent incorporation steps [1] | incorporation efficiency for the next flow (A) [2] | effectiveness as capping reagent ([1]; among EP, IAc, MMTS, DPDS) | fluorescence intensities from subsequent nucleotide incorporations, comparison among capping assays ([1]; assays B-E) | labeled A incorporation [3]
C#CC(=O)OCC [EP, ethyl propiolate] | high intensities | – | – | – | –
NC(=O)CI [IAc, iodoacetamide] | high intensities | – | – | – | –
dipyridyl disulfide [DPDS] | high intensities | increased the incorporation efficiency for the next flow | most effective | highest intensities | greatly enhanced
